Results as given in ChEMBL document CHEMBL6103565, “Current strategies in design and synthesis of antifungals hybrid and chimeric diazine derivatives” (Bioorg Med Chem, 2025).
In brackets after ≈: the same amount, converted by molar mass. Each block holds one compound with its values, some of them ahead of it.

Legend:
Aspergillus niger [1] = test: Antifungal activity against Aspergillus niger MTCC 282 assessed as reduction in microbial growth after 48 hrs by broth dilution method; type: functional
Aspergillus niger [2] = test: Antifungal activity against Aspergillus niger MTCC 282 by disc diffusion method; type: functional, organism-based
Candida albicans [3] = test: Antifungal activity against Candida albicans MTCC 227 assessed as reduction in microbial growth after 48 hrs by broth dilution method; type: functional
Candida albicans [4] = test: Antifungal activity against Candida albicans MTCC 227 by disc diffusion method; type: functional, organism-based
Aspergillus clavatus = test: Antifungal activity against Aspergillus […] MTCC 1323 assessed as reduction in microbial growth after 48 hrs by broth dilution method; type: functional
Penicillium chrysogenum = test: Antifungal activity against Penicillium chrysogenum ATCC 20044 assessed as reduction in fungal growth incubated ofr 48 hrs by CLSI micro-dilution method; type: functional
Penicillium frequentans = test: Antifungal activity against Penicillium frequentans ATCC 10110 assessed as reduction in fungal growth incubated ofr 48 hrs by CLSI micro-dilution method; type: functional
Alternaria alternata = test: Antifungal activity against Alternaria alternata ATCC 8741 assessed as reduction in fungal growth incubated ofr 48 hrs by CLSI micro-dilution method; type: functional
Aspergillus flavus = test: Antifungal activity against Aspergillus flavus ATCC 20046 assessed as reduction in fungal growth incubated ofr 48 hrs by CLSI micro-dilution method; type: functional
Fusarium solani = test: Antifungal activity against Fusarium solani ATCC 20327 assessed as reduction in fungal growth incubated ofr 48 hrs by CLSI micro-dilution method; type: functional
Candida albicans [5] = test: Antifungal activity against Candida albicans; type: functional
Aspergillus fumigatus [6] = test: Antifungal activity against Aspergillus fumigatus; type: functional
Aspergillus fumigatus [7] = test: Antifungal activity against Aspergillus fumigatus assessed as reduction in fungal growth incubated for 20 to 24 hrs by CLSI based micro-dilution analysis; type: functional; conditions: time 20-24 hrs
Candida albicans [8] = test: Antifungal activity against Candida albicans assessed as fungal growth inhibition; type: functional
Candida tropicalis [9] = test: Antifungal activity against Candida tropicalis ATCC 750 assessed as diameter of zone of inhibition; type: functional
Nakaseomyces glabratus [10] = test: Antifungal activity against Candida glabrata ATCC 90030 assessed as reduction in microbial growth; type: functional
Candida tropicalis [11] = test: Antifungal activity against Candida tropicalis ATCC 750 assessed as reduction in microbial growth; type: functional
Nakaseomyces glabratus [12] = test: Antifungal activity against Candida glabrata ATCC 90030 assessed as diameter of zone of inhibition; type: functional
Candida albicans [13] = test: Antifungal activity against Candida albicans ATCC 90028 assessed as diameter of zone of inhibition; type: functional
Candida albicans [14] = test: Antifungal activity against Candida albicans ATCC 90028 assessed as reduction in microbial growth; type: functional

SMILES: CCC(C)CC(C)CCCCCCCCC(=O)N[C@H]1C[C@@H](O)[C@@H](NCCN)NC(=O)[C@@H]2[C@@H](O)CCN2C(=O)[C@H]([C@H](O)CCN)NC(=O)[C@H]([C@H](O)[C@@H](O)c2ccc(O)cc2)NC(=O)[C@@H]2C[C@@H](O)CN2C(=O)[C@H]([C@@H](C)O)NC1=O (stereo not given in full)
MIC (Penicillium chrysogenum): 0.25 µg/mL (≈ 0.229 µM)
MIC (Penicillium frequentans): 0.25 µg/mL (≈ 0.229 µM)
MIC (Alternaria alternata): 0.25 µg/mL (≈ 0.229 µM)
MIC (Aspergillus flavus): 0.25 µg/mL (≈ 0.229 µM)
MIC (Fusarium solani): 0.25 µg/mL (≈ 0.229 µM)

SMILES: Cc1cc(Nc2ccc(=O)n(-c3ccccc3)n2)no1
MIC (Candida albicans [5]): 18 µg/mL (≈ 67.1 µM)
MIC (Aspergillus fumigatus [6]): 18 µg/mL (≈ 67.1 µM)

SMILES: OC[C@H]1O[C@@H](Sc2nnc(Cc3ccc4ccc5cccc6ccc3c4c56)c3ccccc23)[C@H](O)[C@H]1O
MIC (Aspergillus fumigatus [7]): 17 µg/mL (≈ 33.4 µM)

SMILES: Cc1ccc(C2C3=C(N=C4SC=CN42)[C@@]2(C)CC[C@H]4[C@@H](CC=C5C[C@@H](O)CC[C@@]54C)[C@@H]2C3)cc1 (stereo not given in full)
inhibition zone (IZ) (Candida tropicalis [9]): 15 mm
MIC (Nakaseomyces glabratus [10]): > 1000 µg/mL
MIC (Candida tropicalis [11]): > 1000 µg/mL
inhibition zone (IZ) (Nakaseomyces glabratus [12]): 15 mm
inhibition zone (IZ) (Candida albicans [13]): 13 mm
MIC (Candida albicans [14]): 700 µg/mL

Continued, values first:

MIC (Aspergillus niger [1]): 50 µg/mL
EC50 (Aspergillus niger [2]): 0.14 µg/mL (≈ 0.319 µM)
MIC (Candida albicans [3]): 100 µg/mL
EC50 (Candida albicans [4]): 0.14 µg/mL (≈ 0.319 µM)
MIC (Aspergillus clavatus): 50 µg/mL
SMILES: CC(=O)N1N=C(C2=C(C)NC(=O)NC2c2ccc(F)cc2)OC1c1ccc([N+](=O)[O-])cc1 (stereo not given)

MIC (Penicillium chrysogenum): 5 µg/mL (≈ 8.52 µM)
MIC (Penicillium frequentans): 5 µg/mL (≈ 8.52 µM)
MIC (Alternaria alternata): 5 µg/mL (≈ 8.52 µM)
MIC (Aspergillus flavus): 5 µg/mL (≈ 8.52 µM)
MIC (Fusarium solani): 5 µg/mL (≈ 8.52 µM)
SMILES: Cc1ccc(-c2ccc(=O)n(CC3=C(Cn4nc(-c5ccc(C)cc5)ccc4=O)[C@]4(C)CCCC(C)(C)C4=CC3=O)n2)cc1

MIC (Candida albicans [8]): 1.25 µg/mL
SMILES: COC(=O)COc1cccc(OCC(=O)OC)c1C(=O)C[n+]1cc2ccccc2cn1.[Br-]
